# Laboratory results taken from patent US7951232B2, “Surface coating compositions and methods” (Elevance Renewable Sciences, Inc., priority 2006, dated 2011).
# Test system: Aspergillus flavus, ATCC 9170
# Test: Preservative effectiveness, USP <51>
# Type: cell-based
# Protocol: The effectiveness of 9-decenoic acid on Aspergillus and Penecillium which occasionally result in in-can spoilage of paint was determined using the protocol on preservative effectiveness found in the United States Pharmacopeia (USP), 25th Edition, 2002, USP <51>.
# Stock cultures of the fungi Aspergillus flavus, ATCC 9170 and Penecillium verrucosum, ATCC 18381 were cultured onto Sabouraud Dextrose Agar (SDA) and incubated at 25-30° C. for at least 1 week. The spores were washed form the agar surface with sterile saline, filtered through sterile glass wool, enumerated and stored under refrigeration for no longer than thirty days. On the day of the test, the suspension was diluted to approximately 10^8 CFU/ml.
# The 9-decenoic acid was diluted in the same manner as previously described to achieve, 0.25, 0.125, 0.0625, 0.03, 0.015, 0.0078 and 0.0039% and dispensed in 20 ml aliquots in sterile test tubes. For each concentration tested, a 0.1 ml aliquot of each inoculum was added to a final concentration of 10^5 to 10^6 CFU/ml. The tubes were incubated at room temperature and sampled on days 0, 1, 2, 4, 7, 14, 21 and 28.
# At each sample point, 1.0 ml aliquots were withdrawn, serially diluted and plated in triplicate on SDA. The plates were incubated at 25-30° C. for 3-7 days. The colonies were counted and the average CFU/ml was calculated. Controls for purity, viability and sterility were performed as described previously.
# According to the US Pharmacopoeia, a test compound is an effective preservative if the concentrations of viable fungi remain at or below the initial concentrations during the first fourteen days and after 28 days. According to this definition, 9-decenoic acid is an effective preservative against Aspergillus flavus and Penecillium verrucosum at concentrations as low at 0.078%. […] For A. flavus, 9-decenoic acid was fungicidal at 0.015% after 21 days and at day 0 at 0.03%.
compound,measurement,setting,value
C=CCCCCCCCC(=O)O [9-decenoic acid],Log reduction of organisms after exposure,"0.0078%, exposure 0 days",0.2 log
same,Log reduction of organisms after exposure,"0.0078%, exposure 1 day",0.3 log
same,Log reduction of organisms after exposure,"0.0078%, exposure 2 days",0.2 log
same,Log reduction of organisms after exposure,"0.0078%, exposure 4 days",0.4 log
same,Log reduction of organisms after exposure,"0.0078%, exposure 7 days",0.4 log
same,Log reduction of organisms after exposure,"0.0078%, exposure 14 days",0.4 log
same,Log reduction of organisms after exposure,"0.0078%, exposure 21 days",0.8 log
same,Log reduction of organisms after exposure,"0.0078%, exposure 28 days",0.8 log
same,Log reduction of organisms after exposure,"0.015%, exposure 0 days",1.2 log
same,Log reduction of organisms after exposure,"0.015%, exposure 1 day",2.9 log
same,Log reduction of organisms after exposure,"0.015%, exposure 2 days",3.1 log
same,Log reduction of organisms after exposure,"0.015%, exposure 4 days",3.9 log
same,Log reduction of organisms after exposure,"0.015%, exposure 7 days",3.9 log
same,Log reduction of organisms after exposure,"0.015%, exposure 14 days",4.8 log
same,Log reduction of organisms after exposure,"0.015%, exposure 21 days",5.1 log
same,Log reduction of organisms after exposure,"0.015%, exposure 28 days",4.8 log
same,Log reduction of organisms after exposure,"0.03%, exposure 0 days",5.1 log
same,Log reduction of organisms after exposure,"0.03%, exposure 1 day",5.1 log
same,Log reduction of organisms after exposure,"0.03%, exposure 2 days",5.1 log
same,Log reduction of organisms after exposure,"0.03%, exposure 4 days",5.1 log
same,Log reduction of organisms after exposure,"0.03%, exposure 7 days",5.1 log
same,Log reduction of organisms after exposure,"0.03%, exposure 14 days",5.1 log
same,Log reduction of organisms after exposure,"0.03%, exposure 21 days",5.1 log
same,Log reduction of organisms after exposure,"0.03%, exposure 28 days",5.1 log
same,Log reduction of organisms after exposure,"0.0625%, exposure 0 days",5.1 log
same,Log reduction of organisms after exposure,"0.0625%, exposure 1 day",5.1 log
same,Log reduction of organisms after exposure,"0.0625%, exposure 2 days",5.1 log
same,Log reduction of organisms after exposure,"0.0625%, exposure 4 days",5.1 log
same,Log reduction of organisms after exposure,"0.0625%, exposure 7 days",5.1 log
same,Log reduction of organisms after exposure,"0.0625%, exposure 14 days",5.1 log
same,Log reduction of organisms after exposure,"0.0625%, exposure 21 days",5.1 log
same,Log reduction of organisms after exposure,"0.0625%, exposure 28 days",5.1 log
same,time after which fungicidal,at 0.015%,21 days
same,time after which fungicidal,at 0.03%,0 days
